According to ChEMBL document CHEMBL1156187, “Discovery of a selective small-molecule melanocortin-4 receptor agonist with efficacy in a pilot study of sexual dysfunction in humans” (J Med Chem, 2010):

Tests used:
Melanocortin receptor 4 [1] = target: T1, Melanocortin receptor 4 (Homo sapiens, UniProt P32245); assay: Agonist activity at human recombinant MC4 receptor expressed in CHO cells by cAMP responsive beta lactamase reporter gene assay; type: functional, cell-based
Melanocortin receptor 3 [2] = target: T2, Melanocortin receptor 3 (Homo sapiens, UniProt P41968); assay: Agonist activity at human recombinant MC3 receptor expressed in CHO cells assessed as cAMP accumulation by enzyme fragment complementation assay; type: functional, cell-based
T2 sequence (P41968 whole entry, the tested form may be a part): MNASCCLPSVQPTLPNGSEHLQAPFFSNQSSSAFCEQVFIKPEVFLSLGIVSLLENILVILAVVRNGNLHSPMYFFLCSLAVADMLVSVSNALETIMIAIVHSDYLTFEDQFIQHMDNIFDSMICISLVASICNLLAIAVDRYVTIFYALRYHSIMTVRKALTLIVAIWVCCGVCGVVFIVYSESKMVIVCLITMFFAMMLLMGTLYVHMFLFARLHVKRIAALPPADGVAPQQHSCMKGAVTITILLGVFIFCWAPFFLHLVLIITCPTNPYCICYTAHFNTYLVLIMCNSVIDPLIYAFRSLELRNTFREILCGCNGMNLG

Melanocortin receptor 5 [3] = target: T3, Melanocortin receptor 5 (Homo sapiens, UniProt P33032); assay: Agonist activity at human recombinant MC5 receptor expressed in HEK293 cells assessed as cAMP accumulation by beta lactamase reporter gene assay; type: functional, cell-based
T3 sequence (P33032 whole entry): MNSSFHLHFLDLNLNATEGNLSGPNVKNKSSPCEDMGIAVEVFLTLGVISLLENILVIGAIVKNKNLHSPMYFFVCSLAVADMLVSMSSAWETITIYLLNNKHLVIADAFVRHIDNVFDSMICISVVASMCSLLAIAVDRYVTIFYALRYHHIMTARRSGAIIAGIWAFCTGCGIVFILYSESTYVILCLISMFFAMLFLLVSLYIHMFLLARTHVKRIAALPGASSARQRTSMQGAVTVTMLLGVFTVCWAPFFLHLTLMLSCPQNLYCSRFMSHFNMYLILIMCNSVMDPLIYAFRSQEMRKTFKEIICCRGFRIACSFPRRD

Melanocortin receptor 4 [4] = target: T1, Melanocortin receptor 4; assay: Displacement of [125I]-MT-II from human recombinant MC4 receptor expressed in CHO cells by scintillation counting
[5] = target: Melanocyte-stimulating hormone receptor (Homo sapiens, UniProt Q01726); assay: Agonist activity at human recombinant MC1 receptor expressed in HEK293 cells assessed as cAMP accumulation by enzyme fragment complementation assay; type: functional, cell-based
Melanocyte-stimulating hormone receptor, sequence (Q01726 whole entry, the tested form may be a part): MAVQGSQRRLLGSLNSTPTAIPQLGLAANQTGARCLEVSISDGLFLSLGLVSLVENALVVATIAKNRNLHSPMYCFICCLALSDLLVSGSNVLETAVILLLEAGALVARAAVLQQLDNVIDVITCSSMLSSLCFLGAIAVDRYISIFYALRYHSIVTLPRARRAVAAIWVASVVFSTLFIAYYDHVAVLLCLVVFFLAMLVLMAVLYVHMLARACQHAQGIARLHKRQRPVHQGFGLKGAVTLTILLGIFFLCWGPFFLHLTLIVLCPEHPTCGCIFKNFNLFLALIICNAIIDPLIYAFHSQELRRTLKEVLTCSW

Melanocortin receptor 3 [6] = target: T2, Melanocortin receptor 3; assay: Agonist activity at human recombinant MC3 receptor expressed in CHO cells assessed as cAMP accumulation by enzyme fragment complementation assay relative to […]; type: functional, cell-based
[7] = Intrinsic clearance in human liver microsome measured per mg of protein; type: ADME; conditions: liver microsomes
[8] = Lipophilicity, log D at pH 7.4; type: physicochemical; conditions: buffer
Melanocortin receptor 5 [9] = target: T3, Melanocortin receptor 5; assay: Agonist activity at human recombinant MC5 receptor expressed in HEK293 cells assessed as cAMP accumulation by beta lactamase reporter gene assay relative to alpha melanocyte-stimulating hormone; type: functional, cell-based

T1 sequence (P32245 whole entry, the tested form may be a part): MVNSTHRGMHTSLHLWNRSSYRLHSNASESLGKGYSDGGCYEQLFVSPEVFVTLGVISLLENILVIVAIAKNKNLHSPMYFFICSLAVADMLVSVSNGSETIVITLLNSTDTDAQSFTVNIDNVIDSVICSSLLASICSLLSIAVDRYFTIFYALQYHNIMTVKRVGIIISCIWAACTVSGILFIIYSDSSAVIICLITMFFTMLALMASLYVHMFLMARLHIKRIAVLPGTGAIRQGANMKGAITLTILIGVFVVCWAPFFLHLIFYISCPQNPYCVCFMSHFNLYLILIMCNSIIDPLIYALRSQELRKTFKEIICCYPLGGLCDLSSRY

Row | Compound | EC50 (Melanocortin receptor 4 [1]) | microsomal CLint [7] | further results
1 | C[C@@H]1CN(C(=O)[C@H]2CN(C(C)(C)C)C[C@@H]2c2ccc(F)cc2F)C[C@H](C)[C@@]1(O)c1ccccc1 | > 10000 nM |  | 
2 | C[C@@H]1CN(C(=O)[C@H]2CN(c3ncccn3)C[C@@H]2c2ccc(F)cc2F)C[C@H](C)[C@@]1(O)c1ccccc1 | 243 nM |  | EC50 (Melanocortin receptor 3 [2]): > 26700 nM; EC50 (Melanocortin receptor 5 [3]): > 11100 nM; Ki (Melanocortin receptor 4 [4]): 300 nM; EC50 [5]: > 10000 nM
3 | C[C@@H]1CN(C(=O)[C@H]2CN(c3cccnn3)C[C@@H]2c2ccc(F)cc2F)C[C@H](C)[C@@]1(O)C1CC1 | 82 nM |  | EC50 (Melanocortin receptor 3 [2]): 4130 nM; Ki (Melanocortin receptor 4 [4]): 172 nM; EC50 [5]: > 16700 nM; Emax (Melanocortin receptor 3 [6]): 42%
4 | C[C@@H]1CN(C(=O)[C@@H]2CN(C(C)(C)C)C[C@H]2c2ccc(F)cc2F)C[C@H](C)[C@@]1(O)C1CC1 | 962 nM | 14 µL/min/mg | logD [8]: 2.2
5 | C[C@@H]1CN(C(=O)[C@H]2CN(c3cccnn3)C[C@@H]2c2ccc(F)cc2F)C[C@H](C)[C@@]1(O)c1ccc(F)cc1 | 4 nM | 310 µL/min/mg | logD [8]: 3.7
6 | CC(C)N1C[C@@H](C(=O)N2C[C@@H](C)[C@](O)(c3ccc(F)c(F)c3)[C@@H](C)C2)[C@H](c2ccc(F)cc2F)C1 | 257 nM | 28 µL/min/mg | logD [8]: 3.3
7 | CCN1C[C@@H](C(=O)N2C[C@@H](C)[C@](O)(c3ccccc3)[C@@H](C)C2)[C@H](c2ccc(F)cc2F)C1 | 85 nM |  | 
8 | C[C@@H]1CN(C(=O)[C@@H]2CNC[C@H]2c2ccc(F)cc2F)C[C@H](C)[C@@]1(O)c1ccc(F)cc1 | 255 nM | 13 µL/min/mg | logD [8]: 1.8
9 | C[C@@H]1CN(C(=O)[C@H]2CN(c3ccccn3)C[C@@H]2c2ccc(F)cc2F)C[C@H](C)[C@@]1(O)c1ccccc1 | 15 nM |  | Emax (Melanocortin receptor 5 [9]): 29%; EC50 (Melanocortin receptor 3 [2]): 71 nM; EC50 (Melanocortin receptor 5 [3]): 960 nM; Ki (Melanocortin receptor 4 [4]): 79 nM; EC50 [5]: > 16700 nM; Emax (Melanocortin receptor 3 [6]): 78%
10 | C[C@@H]1CN(C(=O)[C@H]2CN(c3cccnn3)C[C@@H]2c2ccc(F)cc2F)C[C@H](C)[C@@]1(O)c1ccccc1 | 6 nM | 243 µL/min/mg | EC50 (Melanocortin receptor 3 [2]): 490 nM; EC50 (Melanocortin receptor 5 [3]): > 20000 nM; Ki (Melanocortin receptor 4 [4]): 10 nM; EC50 [5]: > 3070 nM; logD [8]: 3.3; Emax (Melanocortin receptor 3 [6]): 89%
11 | COc1ccc([C@@]2(O)[C@H](C)CN(C(=O)[C@@H]3CN(C(C)(C)C)C[C@H]3c3ccc(F)cc3F)C[C@@H]2C)cc1 | 53 nM |  | 
12 | C[C@@H]1CN(C(=O)[C@@H]2CN(C(C)(C)C)C[C@H]2c2ccc(F)cc2F)C[C@H](C)[C@@]1(O)c1cccnc1 | 3630 nM |  | 
13 | CC(C)N1C[C@@H](C(=O)N2C[C@@H](C)[C@](O)(c3ccc(F)cc3F)[C@@H](C)C2)[C@H](c2ccc(F)cc2F)C1 | 220 nM |  | 
14 | C[C@@H]1CN(C(=O)[C@@H]2CN(C(C)(C)C)C[C@H]2c2ccc(F)cc2F)C[C@H](C)[C@@]1(O)c1cccc(C#N)c1 | 644 nM |  | 
15 | CCN1C[C@@H](C(=O)N2C[C@@H](C)[C@](O)(c3ccc(F)cc3)[C@@H](C)C2)[C@H](c2ccc(F)cc2F)C1 | 147 nM |  | 
16 | CC(C)N1C[C@@H](C(=O)N2C[C@@H](C)[C@](O)(c3ccc(Cl)cc3)[C@@H](C)C2)[C@H](c2ccc(F)cc2F)C1 | 91 nM | 34 µL/min/mg | logD [8]: 3.5
17 | C[C@@H]1CN(C(=O)[C@@H]2CN(C)C[C@H]2c2ccc(F)cc2F)C[C@H](C)[C@@]1(O)c1ccc(F)cc1 | 365 nM |  | Emax (Melanocortin receptor 5 [9]): 100%; EC50 (Melanocortin receptor 3 [2]): > 33400 nM; EC50 (Melanocortin receptor 5 [3]): 15000 nM; Ki (Melanocortin receptor 4 [4]): 346 nM; EC50 [5]: > 6150 nM
18 | C[C@@H]1CN(C(=O)[C@@H]2CNC[C@H]2c2ccc(F)cc2F)C[C@H](C)[C@@]1(O)c1cccc(F)c1 | 159 nM |  | 
19 | C[C@@H]1CN(C(=O)[C@@H]2CN(C)C[C@H]2c2ccc(F)cc2F)C[C@H](C)[C@@]1(O)c1ccccc1 | 717 nM |  | EC50 (Melanocortin receptor 3 [2]): > 19100 nM; EC50 (Melanocortin receptor 5 [3]): > 20000 nM; Ki (Melanocortin receptor 4 [4]): 1070 nM; EC50 [5]: > 7810 nM
20 | C[C@@H]1CN(C(=O)[C@@H]2CN(C(C)(C)C)C[C@H]2c2ccc(F)cc2F)C[C@H](C)[C@@]1(O)c1ccc(C(F)(F)F)cc1 | 108 nM | < 7 µL/min/mg | logD [8]: 4.1

Row | Compound | EC50 (Melanocortin receptor 4 [1]) | microsomal CLint [7] | further results
21 | C[C@@H]1CN(C(=O)[C@H]2CN(c3cncnc3)C[C@@H]2c2ccc(F)cc2F)C[C@H](C)[C@@]1(O)c1ccccc1 | 117 nM |  | 
22 | C[C@@H]1CN(C(=O)[C@@H]2CN(C(C)(C)C)C[C@H]2c2ccc(F)cc2F)C[C@H](C)[C@@]1(O)c1ccc(F)c(F)c1 | 15 nM | 22 µL/min/mg | logD [8]: 3.5
23 | CCN1C[C@@H](C(=O)N2C[C@@H](C)[C@](O)(c3ccc(F)c(F)c3)[C@@H](C)C2)[C@H](c2ccc(F)cc2F)C1 | 69 nM |  | 
24 | CCN1C[C@@H](C(=O)N2C[C@@H](C)[C@](O)(c3cccc(F)c3)[C@@H](C)C2)[C@H](c2ccc(F)cc2F)C1 | 61 nM | 73 µL/min/mg | Emax (Melanocortin receptor 5 [9]): 92%; EC50 (Melanocortin receptor 3 [2]): > 13500 nM; EC50 (Melanocortin receptor 5 [3]): 6410 nM; Ki (Melanocortin receptor 4 [4]): 355 nM; EC50 [5]: > 8250 nM; logD [8]: 2.9
25 | C[C@@H]1CN(C(=O)[C@H]2CN(CC3CC3)C[C@@H]2c2ccc(F)cc2F)C[C@H](C)[C@@]1(O)c1ccccc1 | 81 nM |  | 
26 | CC(C)CN1C[C@H](C(=O)N2C[C@@H](C)[C@](O)(c3ccccc3)[C@@H](C)C2)[C@@H](c2ccc(F)cc2F)C1 | 73 nM |  | 
27 | CCN1C[C@@H](C(=O)N2C[C@@H](C)[C@](O)(c3ccc(F)cc3F)[C@@H](C)C2)[C@H](c2ccc(F)cc2F)C1 | 51 nM |  | 
28 | CC(C)(C)N1C[C@@H](C(=O)N2CCC(O)(c3ccccc3)CC2)[C@H](c2ccc(F)cc2F)C1 | 1170 nM |  | 
29 | CC(C)N1C[C@@H](C(=O)N2C[C@@H](C)[C@](O)(c3ccc(F)cc3)[C@@H](C)C2)[C@H](c2ccc(F)cc2F)C1 | 52 nM |  | 
30 | CC(C)N1C[C@@H](C(=O)N2C[C@@H](C)[C@](O)(c3cccc(F)c3)[C@@H](C)C2)[C@H](c2ccc(F)cc2F)C1 | 40 nM | 70 µL/min/mg | logD [8]: 3.2
31 | COCCN1C[C@H](C(=O)N2C[C@@H](C)[C@](O)(c3ccccc3)[C@@H](C)C2)[C@@H](c2ccc(F)cc2F)C1 | 374 nM | 84 µL/min/mg | logD [8]: 3.1
32 | CC(C)[C@@]1(O)[C@H](C)CN(C(=O)[C@H]2CN(c3cccnn3)C[C@@H]2c2ccc(F)cc2F)C[C@@H]1C | 89 nM |  | 
33 | C[C@@H]1CN(C(=O)[C@H]2CN(c3cnccn3)C[C@@H]2c2ccc(F)cc2F)C[C@H](C)[C@@]1(O)c1ccccc1 | 111 nM |  | 
34 | C[C@@H]1CN(C(=O)[C@@H]2CNC[C@H]2c2ccc(F)cc2F)C[C@H](C)[C@@]1(O)c1ccc(F)c(F)c1 | 288 nM | 7 µL/min/mg | 
35 | C[C@@H]1CN(C(=O)[C@@H]2CN(C(C)(C)C)C[C@H]2c2ccc(F)cc2F)C[C@H](C)[C@@]1(O)c1cncnc1 | 11100 nM |  | 
36 | C[C@@H]1CN(C(=O)[C@@H]2CN(C)C[C@H]2c2ccc(F)cc2F)C[C@H](C)[C@@]1(O)c1ccc(Cl)cc1 | 130 nM |  | 
37 | CCCN1C[C@H](C(=O)N2C[C@@H](C)[C@](O)(c3ccccc3)[C@@H](C)C2)[C@@H](c2ccc(F)cc2F)C1 | 19 nM |  | 
38 | C[C@@H]1CN(C(=O)C2CN(C(C)(C)C)CC2c2ccc(F)cc2F)C[C@H](C)[C@@]1(O)c1ccccc1 (mixture of isomers) | 3900 nM |  | 
39 | C[C@@H]1CN(C(=O)[C@@H]2CN(C(C)(C)C)C[C@H]2c2ccc(F)cc2F)C[C@H](C)[C@@]1(O)c1ccc(C#N)cc1 | 347 nM |  | 
40 | CC(C)[C@@]1(O)[C@H](C)CN(C(=O)[C@@H]2CN(C(C)(C)C)C[C@H]2c2ccc(F)cc2F)C[C@@H]1C | 626 nM |  | 
